Test results from paper PMC10321319 (Nature, 2022).
Values after ≈ are worked out from the molar mass of the structure shown. Positions of bridges follow the written chain, without caps; N, C: chain ends. Non-standard residues stand in square brackets, D forms with d. Residues, ends and D or L forms follow the SMILES beside them. *: point of attachment. Heptanoyl = CCCCCCC(=O)*; Dab = NCC[C@H](N)C(=O)O

Columns and labels:
A. baumannii 0295 = settings: XDR A. baumannii 0295, mcr-1 −; ref CDC & FDA Antibiotic Resistant Isolate Bank; cited from earlier work
A. baumannii 0287 = settings: XDR A. baumannii 0287, mcr-1 −; ref CDC & FDA Antibiotic Resistant Isolate Bank; cited from earlier work
A. baumannii 0296 = settings: XDR A. baumannii 0296, mcr-1 −; ref CDC & FDA Antibiotic Resistant Isolate Bank; cited from earlier work
A. baumannii 0301 = settings: XDR A. baumannii 0301, mcr-1 −; ref CDC & FDA Antibiotic Resistant Isolate Bank; cited from earlier work
A. baumannii 0286 = settings: XDR A. baumannii 0286, mcr-1 −; ref CDC & FDA Antibiotic Resistant Isolate Bank; cited from earlier work
A. baumannii 0282 = settings: XDR A. baumannii 0282, mcr-1 −; ref CDC & FDA Antibiotic Resistant Isolate Bank; cited from earlier work
[1] = system: A. baumannii SM1536 (pMQ124xlab1-mcr-1); assay: MIC, microbial susceptibility assay; format: cell-based, Acinetobacter baumannii; settings: A. baumannii SM1536 upon introduction of mcr-1
[2] = system: A. baumannii 0301 (mcr-1); assay: MIC, microbial susceptibility assay; format: cell-based, Acinetobacter baumannii; settings: A. baumannii 0301 upon introduction of mcr-1

| SMILES | MIC (A. baumannii 0295) [µg/mL] | MIC (A. baumannii 0287) [µg/mL] | MIC (A. baumannii 0296) [µg/mL] | MIC (A. baumannii 0301) [µg/mL] | MIC (A. baumannii 0286) [µg/mL] | MIC (A. baumannii 0282) [µg/mL] | Fold increase in MIC [1] | Fold increase in MIC [2] |
| --- | --- | --- | --- | --- | --- | --- | --- | --- |
| NCC[C@H](O)C(=O)N[C@@H]1C[C@H](N)[C@@H](O[C@H]2O[C@H](CN)[C@@H](O)[C@H](O)[C@H]2O)[C@H](O)[C@H]1O[C@H]1O[C@H](CO)[C@@H](O)[C@H](N)[C@H]1O [Amikacin] | 4 (≈ 6.83 µM) | 32 (≈ 54.6 µM) | >64 | 64 (≈ 109 µM) | >64 | >64 | – | – |
| CNC(C)C1CCC(N)C(OC2C(N)CC(N)C(OC3OCC(C)(O)C(NC)C3O)C2O)O1 (stereo not drawn) [Gentamicin] | 4 (≈ 8.38 µM) | 4 (≈ 8.38 µM) | >16 | 8 (≈ 16.8 µM) | >16 | >16 | – | – |
| CO/N=C(\C(=O)N[C@@H]1C(=O)N2C(C(=O)O)=C(COC(C)=O)CS[C@H]12)c1csc(N)n1 [Cefotaxime] | >64 | >64 | >64 | >64 | >64 | >64 | – | – |
| CN(C)c1cc(NC(=O)CNC(C)(C)C)c(O)c2c1C[C@H]1C[C@H]3[C@H](N(C)C)C(O)=C(C(N)=O)C(=O)[C@@]3(O)C(O)=C1C2=O [Tigecycline] | 4 (≈ 6.83 µM) | – | – | 4 (≈ 6.83 µM) | – | – | – | – |
| NC[C@H]1O[C@H](O[C@H]2[C@H](O)[C@@H](O[C@H]3O[C@H](CO)[C@@H](O)[C@H](N)[C@H]3O)[C@H](N)C[C@@H]2N)[C@H](N)C[C@@H]1O [Tobramycin] | – | >16 | >16 | >16 | >16 | >16 | – | – |
| CC1(C)S[C@@H]2[C@H](NC(=O)[C@H](N)c3ccccc3)C(=O)N2[C@H]1C(=O)O [Ampicillin] | >32 | >32 | >32 | >32 | 32 (≈ 91.6 µM) | >32 | – | – |
| CCCCCCC(=O)N[C@@H](CCN)C(=O)N[C@H](C(=O)N[C@H](CO)C(=O)N[C@H]1CCNC(=O)[C@H](CC(C)C)NC(=O)[C@H](CCN)NC(=O)[C@H](CCN)NC(=O)[C@H]([C@@H](C)CC)NC(=O)[C@@H](CC(C)C)NC(=O)[C@H](CCN)NC1=O)[C@@H](C)O [L1] (Heptanoyl-[Dab]T[dS][Dab][Dab][dL]I[Dab][Dab]L; lactam 4-C; N-terminus assumed) | – | – | – | – | – | – | 8 | 2 |
| C[C@@H](O)[C@H]1C(=O)N2C(C(=O)O)=C(S[C@@H]3CN[C@H](CNS(N)(=O)=O)C3)[C@H](C)[C@H]12 [Doripenem] | >8 | >8 | >8 | >8 | >8 | >8 | – | – |
| C[C@H]1COc2c(N3CCN(C)CC3)c(F)cc3c(=O)c(C(=O)O)cn1c23 [Levofloxacin] | >8 | 8 (≈ 22.1 µM) | >8 | >8 | 8 (≈ 22.1 µM) | 8 (≈ 22.1 µM) | – | – |
| CCN1CCN(C(=O)N[C@@H](C(=O)N[C@@H]2C(=O)N3[C@@H]2SC(C)(C)[C@@H]3C(=O)O)c2ccccc2)C(=O)C1=O [Piperacillin] | >128 | >128 | >128 | >128 | >128 | >128 | – | – |
